Key:
[1] = tested on: Oct-4 expression, primary human lung cells; assay: Quantitative RT-PCR of Oct-4 in primary human lung cells grown with VPA; format: cell-based; settings: 5 mM VPA, three days, p<0.01
Description: (§1) Cell culture. Primary human lung cells were purchased from Cell Applications (San Diego, Calif.), and were maintained at 37° C. in 95% humidity and 5% CO2 in Dulbecco's modified eagle medium (DMEM, Hyclone) containing 10% fetal bovine serum (FBS, Hyclone) and 0.5% penicillin and streptomycin. Cells were grown in the presence of 1 mM VPA, 5 mM VPA or in the absence of VPA for three days.
Quantitative RT-PCR. Expression of Oct-4 and Nanog were determined by real-time RT-PCR for each culture condition (0 mM VPA, 1 mM VPA, and 5 mM VPA). Briefly, total RNA was prepared from cultures using Trizol Reagent (Life Technologies, Gaithersburg, Md.) and RNeasy Mini kit (Qiagen; Valencia, Calif.) with DNase I digestion according to manufacturer's protocol. Total RNA (1 μg) from each sample was subjected to oligo(dT)-primed reverse transcription (Invitrogen; Carlsbad, Calif.). Real-time PCR reactions will be performed with PCR master mix on a 7300 real-time PCR system (Applied Biosystems; Foster City, Calif.). For each sample, 1 μl of diluted cDNA (1:10) will be added as template in PCR reactions. The expression level of Oct-4 and Nanog was normalized to GAPD.

[2] = tested on: stemness genes, primary human lung cells; assay: Human Embryonic Taqman Low Density Array (TLDA) analysis of stemness genes in VPA-treated cells; format: cell-based; settings: 5 mM VPA, three days
Description: as §1
Embryonic Taqman Low Density Array Analysis. Expression levels of several genes that contribute to a cell being pluripotentail (“stemness genes”) were determined using the Human Embryonic Taqman Low Density Array Analysis (TLDA). Several stemness genes were analyzed: GABRB3, LEFTB, NR6A1, PODXL, and PTEN. In addition, the expression level of the DNA methyl transferase DNMT3B was determined. The Applied Biosystems Human Embryonic TLDA, which contains 90 embryonic stem cell and developmental genes and 6 endogenous control genes, was used for quantitative real time RT-PCR to quantify relative expression levels (Applied Biosytems, Foster City, Calif.). Briefly, following reverse-transcription of RNA using the ABI High Capacity cDNA Reverse Transcription Kit (ABI; Foster City, Calif.), 150 ng sample cDNA in 50 μl nuclease-free water+50 μl ABI Universal Taqman 2×PCR Master Mix was pipetted into each port of the TLDA microfluidic card, and analyzed on the ABI 7900HT Fast Real Time PCR System. The ^ΔΔCT method was used to calculate relative quantities (fold change) in gene expression levels in treated cells relative to untreated control cells. The treated cells may also be compared to federally-approved human embryonic stem cells.

[3] = tested on: first exon of the Oct-4 gene; assay: Bisulfite sequencing of the Oct-4 promoter/first exon; format: cell-based; settings: VPA-treated primary human lung cells
Description: as §1
Bisulfite Sequencing. Bisulfite sequencing is the use of bisulfite treatment of DNA to determine the pattern of methylation. Bisulfite sequencing is based on the fact that treatment of DNA with bisulfite converts cytosine residues to uracil, but leaves 5-methylcytosine residues unaffected. Bisulfite treatment thus introduces specific changes in the DNA sequence that depend on the methylation status of individual cytosine residues, yielding very high-resolution information about the methylation status of a segment of DNA.
Methylation of pluripotent gene promoters was analyzed by bisulfite sequencing. Briefly, DNA was purified by phenolchloroform-isoamylalcohol extraction. Bisulfite conversion was performed using the EZ DNA Methylation kit following the manufacturer's protocol (Zymo Research; Orange, Calif.). The conversion rate of all cytosines in non-CpG dinucleotides to uracils was 100%. Converted DNA was amplified by PCR using primers for human Oct3/4, Nanog, and SOX2. […]

[4] = tested on: Oct-4 gene expression, HLFa; assay: Small molecules, Oct-4 gene expression by qRT-PCR (Table III), HLFa; format: cell-based, human; settings: dose 5 mM, Rx Time 5
[5] = tested on: Oct-4 gene expression, HLFf; assay: Small molecules, Oct-4 gene expression by qRT-PCR (Table III), HLFf; format: cell-based, human; settings: dose 5 mM, Rx Time 5
[6] = tested on: Sox-2 and Nanog gene expression, human dermal fibroblasts; assay: VPA effect on Sox-2 and Nanog gene expression in human dermal fibroblasts (FIG. 17); format: cell-based; settings: VPA 5 mM, 4-6 days, multiple dermal fibroblast cell types
Description: FIG. 17 is a bar graph reporting the effects of VPA (5 mM) on gene expression of Oct-4, Sox-2 and Nanog in human dermal fibroblasts. Significance relative to control within each cell type: *p<0.05; **p<0.03; and ***p<0.01.
Quantitative RT-PCR. Expression of Oct-4 was determined by real-time RT-PCR. Briefly, total RNA was prepared from cultures using Trizol Reagent (Life Technologies, Gaithersburg, Md.) and RNeasy Mini kit (Qiagen; Valencia, Calif.) with DNase I digestion according to manufacturer's protocol. Total RNA (1 μg) from each sample was subjected to oligo(dT)-primed reverse transcription (Invitrogen; Carlsbad, Calif.). Real-time PCR reactions will be performed with PCR master mix on a 7300 real-time PCR system (Applied Biosystems; Foster City, Calif.). For each sample, 1 μl of diluted cDNA (1:10) will be added as template in PCR reactions. The expression level of Cot-4 was normalized to glyceraldehyde 3-phosphate-dehydrogenase (GAPD).
Pluripotency gene expression was increased in multiple dermal fibroblast cell types following exposure to VPA for 4-6 days. mRNA levels were determined by real time qRT-PCR and normalized with GAPDH.

[7] = tested on: HDAC and DNMT1 gene expression, BJ dermal fibroblasts; assay: VPA effect on HDAC and DNMT1 gene expression in BJ dermal fibroblasts (FIG. 18); format: cell-based, human; settings: 500 μM VPA, 7 days, BJFs; HDAC1 p<0.01, SIRT4 p 0.05, DNMT1 p<0.005
Description: FIG. 18 is a bar graph reporting the effects of VPA (500 μM) on HDAC and DNMT1 gene expression in BJ dermal fibroblasts (obtained from ATCC).
FIG. 18 reports the effects of 500 μM VPA on HDAC and DNMT1 gene expression in BJFs. Cells were exposed to VPA for 7 days. […] Statistical significance was as follows: HDAC1 (p<0.01); SIRT4 (p, 0.05) and DNMT1 (p<0.005).

SMILES: CCCC(CCC)C(=O)O [VPA, valproic acid]
- expression of Oct4 up-regulated compared to control cells [1]: ~2.7 fold
- expression of DNA methyltransferase DNMT3B [2]: down-regulated
- stemness-related genes not detected in control cells (FOXD3, NR5A2, TERT, LIFR, SFRP2, TFCP2L1, LIN28, SOX2, XIST) [2]: induced
- expression of stemness genes GABRB3, LEFTB, NR6A1, PODXL, PTEN ([2]; n=three replicates): up-regulation
- methylation of cytosines in the first exon of Oct-4 [3]: demethylation of two cytosines
- Oct4 FC [4]: 4
- Oct4 FC [5]: 5
- expression of Sox-2 and Nanog [6]: increase in expression
- HDAC1, SIRT4 and DNMT1 gene expression compared to control cells [7]: significantly u-regulated

From US20110059526A1, “REPROGRAMMING A CELL BY INDUCING A PLURIPOTENT GENE THROUGH USE OF AN HDAC MODULATOR” (NUPOTENTIAL, INC., priority 2008, published 2011)
